According to ChEMBL document CHEMBL1145594, “Carbonic anhydrase inhibitors: design of spin-labeled sulfonamides incorporating TEMPO moieties as probes for cytosolic or transmembrane isozymes” (Bioorg Med Chem Lett, 2008):

What follows are compounds tested against Carbonic anhydrase 9 (Homo sapiens, UniProt Q16790).
Description: Inhibition of human cloned carbonic anhydrase 9 by CO2 hydration stopped-flow assay
For `CC1(C)CC(NC(=S)Nc2cccc(S(N)(=O)=O)c2)CC(C)(C)N1[O]`, the Ki was 132 nM. In the case of `CC1(C)CC(NC(=S)Nc2ccc(S(=O)(=O)NCCc3ccc(S(N)(=O)=O)cc3)cc2)CC(C)(C)N1[O]`, the Ki is reported as 41 nM. In the case of `CC1(C)CC(NC(=S)Nc2ccc(S(=O)(=O)Nc3cccc(S(N)(=O)=O)c3)cc2)CC(C)(C)N1[O]`, the Ki is reported as 220 nM. In the case of `CC1(C)CC(NC(=S)NCCc2ccc(S(N)(=O)=O)cc2)CC(C)(C)N1[O]`, the Ki is reported as 39 nM. With `CC1(C)CC(NC(=S)Nc2ccc(S(=O)(=O)NCc3ccc(S(N)(=O)=O)cc3)cc2)CC(C)(C)N1[O]` the Ki was 7 nM. For `CC1(C)CC(NC(=S)NCc2ccc(S(N)(=O)=O)cc2)CC(C)(C)N1[O]`, the Ki was 35 nM. `CC1(C)CC(NC(=S)Nc2ccc(S(N)(=O)=O)cc2F)CC(C)(C)N1[O]` was tested, and the Ki was 22 nM. With `CC1(C)CC(NC(=S)Nc2ccc(S(N)(=O)=O)cc2Cl)CC(C)(C)N1[O]` the Ki was 14 nM. In the case of `CC1(C)CC(NC(=S)Nc2ccc(S(=O)(=O)Nc3ccc(S(N)(=O)=O)cc3)cc2)CC(C)(C)N1[O]`, the Ki is reported as 30 nM.
